In patent US20220089600A1, “TGFß INHIBITOR AND PRODRUGS” (FUNDACIÓ INSTITUT DE RECERCA BIOMÈDICA (IRB BARCELONA), priority 2018, published 2022):

Experiments:
[1] = test system: TGFβ signaling (12×CAGA-Firefly_Luc reporter) in HEK293T cells; test: In vitro CAGA-Luciferase reporter assay; format: cell-based; conditions: Homo sapiens, HEK-293T, 5 ng/ml TGFB1, 16h, read-out: IC50, TGFβ signaling inhibition (CAGA-Luciferase)
Procedure: HEK293T cells were purchased from the ATCC and cultured in DMEM supplemented with L-glutamine and 10% fetal bovine serum (Life Technologies) at 37° C. and 5% CO2. The cells were seeded in 24-well plates and transfected with plasmids encoding 12×CAGA-Firefly_Luc and Tk-Renilla_Luc (75 and 10 ng per well, respectively), using polyethylenimine (Polysciences) as transfection reagent. After 7h, medium was replaced for starvation medium (DMEM+0.05% FBS). […] Luciferase activity was measured 16h later using the Dual Luciferase Assay kit (Promega): media were aspirated, and cells were lysed in 200 μl passive lysis buffer (kit) for 20 minutes. Bioluminescence was measured in a Berthold Lumat LB6507 luminometer (18 μl reagents, 10 seconds measurements). […]
When adding the luciferase substrate (luciferin) to the cell lysates, emission of light implies an active TGF-β pathway due to the production of pSMAD2/3-SMAD4, whereas no or little observed light would imply inhibition of the pathway by the inhibitor. Finally, the results could be normalized by the addition of Stop & Glo® which quenches the firefly luciferase enzyme/substrate and activates the Renilla transfection control, producing light which was again measured by the luminometer and used to normalize the data.

MTO129 liver metastases [2] = test: Mouse liver metastasis initiation/formation assay with MTOs; format: in vivo; conditions: for Efficacy (Cure rate): two weeks, mice with no metastases; for metastatic tumor growth inhibitory capacity (bioluminescence): day 3 until day 14
Excerpt: Mouse tumor organoids (MTOs) are derived from compound transgenic mice (conditional mutations in Apc, Kras, Trp53 and Tgfbr2, as well as bearing Lgr5-EGFP/CreER^T2) of the C57BL6/J strain and cultured as described in Tauriello et al. 2018 Nature 554(7693): 538-543. doi: 10.1038/nature25492. Organoids are tumor epithelial cells grown in a 3D matrix where they adopt an organotypic architecture, typically as spheroids with a lumen. In this way, cells retain a relatively normal polarity (which means that the outside surface, inside/luminal surface and cell-cell contacts are individually specialized), which is more physiological than in conventional 2D cell culture.
In all experiments described in present invention MTO129 were used (Tauriello et al. Nature. 2018).
In patients, treatment doses were reduced to 80 to 150 mg b.i.d in a regime of 14 days on-14 days off.
MTOs expressing a luciferase reporter were measured by bioluminescence imaging, using retroorbital injection of 50 μl 15 mg/ml D-luciferin potassium salt (Resem BV). Photons per second from the region spanning thorax/abdomen were quantified and normalized to the measure at the day of injection.
Control mice were treated with 150 μl of vehicle.
In the experiment shown in FIG. 13, potency of the indicated compounds to inhibit metastasis formation was assessed. Mice were treatments with indicated compounds started two days after MTO129 transplantation and continued during two weeks. Mice were sacrificed at 4 weeks post transplantation and liver metastases (LiMs) were counted by eye on fixed livers.

MTO129 liver metastases [3] = conditions: Tauriello et al. Nature 2018 (10×); cited from earlier work
[4] = In vivo toxicity, histopathology; parameters: species or system mouse; conditions: for Sternum side effect, mice affected per mice tested / Long bones side effect, mice affected per mice tested: two weeks
Excerpt: Number of cured mice, i.e. mice with no metastases at experimental end points, were score. Intestines, skin samples, hearts, thoracic skeletons and limbs of these mice were fixed in 10% formalin, phosphate buffered (Sigma). Soft tissues were embedded in paraffin blocks, sectioned and stained with haematoxylin & eosin. Bones were first decalcified for 2 weeks before embedding, sectioning and staining. An experienced pathologist analyzed tissues for histopathological abnormalities. […] Furthermore, the cartilage ossification zone at the ends of the long bones was analysed for defects in the hypertrophic zone.

[5] = biological target: T1, LigF expressed in HEK293T cells (Sphingobium sp., UniProt P30347); test: Fluorescence assay in HEK293T cells stably expressing LigF; format: cell-based
T1 construct: expressed in transfected cells; host or cells: HEK293T (lentiviral pLenti PGK puro)
Procedure: […]. At time points after addition of various concentrations of MUAV, namely 10, 30, and 100 μM, culture medium was taken for measurements of 4-MU fluorescence.

LigF = biological target: T2, LigF (Sphingobium sp., UniProt P30347); test: In vitro fluorescence assay with purified LigF; format: biochemical, Sphingobium sp. strain SYK-6; conditions: 30 μM substrate, 15 μg/ml LigF, 1 mM glutathione, room temperature
T2 construct: made in house; host or cells: E. coli BL21 (DE3) Rosetta lysS
T2 sequence (P30347 1-257): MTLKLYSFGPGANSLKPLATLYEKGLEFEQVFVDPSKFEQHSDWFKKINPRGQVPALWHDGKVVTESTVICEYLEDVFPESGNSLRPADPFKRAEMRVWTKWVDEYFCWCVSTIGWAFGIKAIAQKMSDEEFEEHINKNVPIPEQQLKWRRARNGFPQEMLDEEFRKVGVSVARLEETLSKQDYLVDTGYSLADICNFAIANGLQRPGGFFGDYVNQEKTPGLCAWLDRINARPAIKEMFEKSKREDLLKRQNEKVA
Procedure: To test the enzymatic activity of LigF, pure LigF protein was expressed by the Protein Expression Core Facility within the IRB Barcelona by inserting the His-tagged LigF DNA into a pOPINF vector and expressed in E. coli BL21 (DE3) Rosetta IysS cells. After expression and lysis, the protein was purified by using a nickel column followed by gel filtration. Noteworthy, the His tags were not removed from the protein after purification.
For in vitro fluorescence assays, purified LigF was diluted to 15 μg/ml in 20 mM Tris-HCl (pH 7.5), 1 mM glutathione and 30 μM 4-methylumbelliferone acetovanillone (MUAV) model compound was added.
Reactions were performed in a 96-well solid polystyrene plate (Corning) and measured with a top-well plate reader (BioTek FL600 fluorometer) at 360 excitation, 485 emission and sensitivity 100.
Due to a rapid rate of production of 4-methylumbelliferone (4-MU) owing to the cleavage of the beta-ether bond of compound MUAV, the protocol described by Masai (E. Masai et al., J. Bacteriol. 2003, 185, 1768-75) was modified by lowering the LigF enzyme concentration. With this optimized protocol, compound MUAV was incubated at room temperature in the presence of a buffer, glutathione (GSH) and LigF, and followed the cleavage by observing the production of 4-MU by fluorescence. […] Enzyme LigF cleaved product MUAV in approximately 30-40 min (FIG. 6).

Structure (SMILES): Cc1cccc(-c2nn3c(c2-c2ccnc4ccc(C(N)=O)cc24)CCC3)n1 [Galunisertib, reference compound]
- IC50 [1]: 0.359 µM
- Efficacy (Cure rate) (MTO129 liver metastases [2]; 1x dose): 0%
- Efficacy (Cure rate) (MTO129 liver metastases [2]; 3x dose): ~70%
- Efficacy (Cure rate) (MTO129 liver metastases [2]; 9x dose): ~100%
- metastatic tumor growth inhibitory capacity (MTO129 liver metastases [2]; 9× dose, as seen in FIG. 3): highly effective
- metastatic tumor growth inhibitory capacity (bioluminescence) (MTO129 liver metastases [2]; FIG. 4, 1× dose): not effective
- metastatic tumor growth inhibitory capacity (bioluminescence) (MTO129 liver metastases [2]; FIG. 4, 3× dose): mostly effective
- effective dose (>50% efficacy) (MTO129 liver metastases [2]; oral, divided b.i.d.): 480 mg/kg/day
- doses needed to effectively treat metastatic cancers (MTO129 liver metastases [3]): up to 1600 mg/kg/day
- Combined side effects per number tested ([4]; 1x dose): 0/5
- Toxicity (%) ([4]; 1x dose): 0%
- Sternum side effect, mice affected per mice tested ([4]; 1x dose): 0/5
- pathological analysis of the skin and intestine ([4]; 1× doses): No pathological anomalies
- Combined side effects per number tested ([4]; 3x dose): 1/9
- Toxicity (%) ([4]; 3x dose): 11%
- Long bones side effect, mice affected per mice tested ([4]; 3x dose): 0/5
- Sternum side effect, mice affected per mice tested ([4]; 3x dose): 1/4
- Combined side effects per number tested ([4]; 9x dose): 6/10
- Toxicity (%) ([4]; 9x dose): 60%
- Long bones side effect, mice affected per mice tested ([4]; 9x dose): 2/3
- Sternum side effect, mice affected per mice tested ([4]; 9x dose): 4/7
- toxic dose (toxicity >50%) ([4]; 9× dose equivalent): 1440 mg/kg/day

Structure (SMILES): COc1cc(C(=O)COc2ccc3c(C)cc(=O)oc3c2)ccc1O [MUAV, 7-(2-(4-hydroxy-3-methoxyphenyl)-2-oxoethoxy)-4-methyl-2H-chromen-2-one]
- cleavage of ether bond (4-MU fluorescence) ([5]; HEK293T expressing LigF, 10, 30, 100 μM): dose-dependent increase in fluorescence
- cleavage of ether bond (4-MU fluorescence) ([5]; HEK293T with empty vector (no LigF), 100 μM): No cleavage
- time for cleavage by LigF (LigF): 30 to 40 min
